Data: EP4781986A1, “PHARMACEUTICAL COMPOSITION HAVING IMPROVED PHARMACOKINETIC PROPERTIES” (Sichuan Purity Pharmaceutical Co., Ltd., priority 2023, dated 2025)
Read-outs that look alike come from different tables or passages of the source. One block for each compound: values may come before it.

Tests used:
CGRP receptor complex = target: T1, CGRP receptor complex (Homo sapiens, UniProt O60894+Q16602); experiment: determination of cell functional antagonism - cAMP determination; assay type: cell-based; settings: inhibition of CGRP-stimulated cAMP formation in SK-N-MC cells
T1 construct: SK-N-MC (neuroepithelioma cells) from National Science and Technology Infrastructure; host or cells: SK-N-MC
Experimental: A CGRP receptor complex was coupled with Gs in G protein, the combination of CGRP and CGRP receptor complex led to Gs activation, and cAMP (3',5'-cyclic adenosine monophosphate) was produced.
The ability of the compound of the present invention to inhibit CGRP-stimulated cAMP formation in SK-N-MC cells was determined.
SK-N-MC (neuroepithelioma cells) from National Science and Technology Infrastructure - Biomedical Materials and Cell Resources.
The SK-N-MC cells were resuscitated and cultured in advance, and a cell confluence degree should be 70%-80% before use.
4.2 A sample dilution, a tested compound and α-CGRP (human) were prepared.
The SK-N-MC cells were digested, centrifuged, then resuspended with the sample dilution, and inoculated into a 384-well plate. Each well was added with the α-CGRP (human) and the tested compound respectively, and blown and mixed evenly. The well plate was adhered with a sealing film, and placed on an enzyme-labeled incubator to incubate at 25°C.
4.4 cAMP determination: carried out according to LANCE Ultra cAMP Kit specification EucAMP tracer and ULight-anti-cAMP working solutions were prepared in the dark, respectively added into the well plate, and blown and mixed evenly. The well plate was adhered with a sealing film, and placed on an enzyme-labeled incubator to incubate at 25°C.
4.5 A luminescence value was read by a chemiluminescent module of an automatic enzyme-labeled instrument.

Plasma of human = experiment: plasma protein binding rate test, equilibrium dialysis (human); assay type: in vitro ADME; settings: 1 µM, 37°C, 6 hours
Experimental: (§1) Protein binding rates of the compound of the present invention in plasma of rat, monkey and human were determined by an equilibrium dialysis method. Tested compounds of the present invention were the compounds in Examples 6 and 8.
(§2) 3.1 A dry dialysis membrane was rinsed with ultrapure water for 2-3 times, and then soaked in a phosphate buffer for 1 hour for later use. Polytetrafluoroethylene module was soaked in 20% ethanol for 30 minutes, and then surface moisture was dried with dust-free paper for later use. The pretreated dialysis membrane was assembled into a dialysis plate according to the product specification, and one side (receptor compartment) of an osmotic membrane in each dialysis well was added with 100 µL of receptor fluid (100 mM phosphate buffer solution plus 0.002% Tween 80).
(§3) 3.2 The plasma was put into a centrifuge tube, a working solution of a tested substance was added into the plasma, wherein a final concentration was 1 µM, and the mixture was turned upside down and mixed evenly (this step was carried out in ice bath). 20 µL of drug-containing plasma each was taken, and was respectively transferred to a 96-well sample plate according to two parts in parallel, and stored in a refrigerator at -20°C as a T0 sample.
(§4) 3.3 Another 100 µL of the above drug-containing plasma was transferred to the other side (sample compartment) of the membrane in the dialysis device according to two parts in parallel, and incubated under vibration at a constant temperature of 37°C for 6 hours. […]
(§5) A plasma protein binding rate and a recovery rate of the compound in plasma were calculated by the following formulas: dissociation percentage (%) = CB /CA; [formula] plasma protein binding rate (fb%) = 1−dissociation percentage (%); [formula] recovery rate (%) = (CB+CA)/CT0 [formula] wherein CB was a concentration of the compound in the receptor fluid after equilibrium dialysis; CA was a concentration of the compound in the drug-containing plasma after equilibrium dialysis; and CT0 was an initial concentration of the compound in plasma.

[1] = stability test in liver microsomes (monkey); assay type: in vitro ADME
Experimental: (§6) The stability of the compound of the present invention in liver microsomes of rat, monkey and human was determined. Tested compounds of the present invention were the compounds in Examples 6 and 8 , and a control drug was Zavegepant.
(§7) 3.2 An appropriate amount of liver microsome solution was transferred into a 1 mL 96-deep-well plate, added with a tested drug liquid (or a probe substrate solution), and pre-incubated in a thermal mixer at 37°C for 5 minutes. Two parts of mixed solutions were taken out from the system and added with 1×PBS to replace NADPH, and the mixed solutions were taken out at 0 and 60 minutes respectively, and added with methanol (containing an internal standard) to terminate the reaction. In the remaining mixed system, each well was added with NADPH to start the reaction. In the tested substance group, mixed solutions were taken out from the system at 0, 5, 15, 30, 45 and 60 minutes, and in the control group, mixed solutions were taken out from the system at 0, 30 and 60 minutes, and the mixed solutions were added methanol (containing an internal standard) to terminate the reaction. All samples of the terminated reaction were mixed evenly and centrifuged in a centrifuge at 3800 rpm for 15 minutes, and the supernatant was taken for LC-MS/MS analysis.
(§8) A peak area was determined by an extracted ion chromatogram. A slope value k was determined by linear regression of a remaining percentage of a parent drug relative to a natural logarithm of an incubation time curve. According to the slope, in-vitro half-life periods (t1/2) were respectively calculated, and in-vitro intrinsic clearance rates (CLint, represented by µL/min/mg protein) were calculated. Calculation formulas were as follows: t1/2 = ln2/k = 0.693/k; and CLint = 0.693/t1/2 /liver microsome protein concentration [formula]

Plasma of SD rat = experiment: plasma protein binding rate test, equilibrium dialysis (rat); assay type: in vitro ADME; settings: 1 µM, 37°C, 6 hours
Experimental: as §1, §2, §3, §4, §5

[2] = stability test in liver microsomes (human); assay type: in vitro ADME; settings: for % remaining (60 min): Human liver microsomes
Experimental: as §6, §7, §8

[3] = tested on: Plasma of cynomolgus monkey; experiment: plasma protein binding rate test, equilibrium dialysis (monkey); assay type: in vitro ADME; settings: 1 µM, 37°C, 6 hours
Experimental: as §1, §2, §3, §4, §5

[4] = stability test in liver microsomes (rat); assay type: in vitro ADME; settings: for % remaining (60 min): Rat liver microsomes
Experimental: as §6, §7, §8

[5] = oral administration with alkyl glucoside, according to CN202180077330.9; cited from earlier work
[6] = PK properties in SD rats with or without 0.2% alkyl glycoside (DDM); assay type: in vivo; settings: for Tmax: Sprague-Dawley, rat, in vivo, inhaled or intranasal
Source text: During preparation of a test sample in the Test Example 5, a drug solution group with 0.2% dodecyl-β-D-maltoside (DDM) was also established and prepared in parallel, so as to compare and observe changes of PK properties in rats administered with the drug solution group with 0.2% dodecyl-β-D-maltoside (DDM) and the drug solution group without dodecyl-β-D-maltoside (DDM).

[7] = PK properties in SD rats with different concentrations of alkyl glycoside (0.05% and 5% DDM); assay type: in vivo; settings: intranasal, 5% DDM vs without DDM
Source text: During preparation of a test sample in the Test Example 7, drug solution groups with 0.05% and 5% dodecyl-β-D-maltosides (DDM) were established and prepared in parallel, so as to compare and observe changes of PK properties in rats administered with the drug solution groups with two different concentrations of dodecyl-β-D-maltosides (DDM).

T1 sequence (Q16602 23-461): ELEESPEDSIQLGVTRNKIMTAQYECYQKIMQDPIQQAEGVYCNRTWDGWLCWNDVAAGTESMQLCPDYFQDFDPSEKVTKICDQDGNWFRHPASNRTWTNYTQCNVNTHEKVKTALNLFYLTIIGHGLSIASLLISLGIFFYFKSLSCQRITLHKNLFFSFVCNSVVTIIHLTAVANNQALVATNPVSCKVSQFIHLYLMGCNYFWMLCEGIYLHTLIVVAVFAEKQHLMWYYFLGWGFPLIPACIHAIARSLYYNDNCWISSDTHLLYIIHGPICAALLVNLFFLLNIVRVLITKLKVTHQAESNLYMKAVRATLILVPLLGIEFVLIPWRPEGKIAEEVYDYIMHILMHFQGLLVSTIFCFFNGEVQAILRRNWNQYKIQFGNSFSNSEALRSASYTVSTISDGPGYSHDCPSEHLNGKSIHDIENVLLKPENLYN
T1 sequence (O60894 27-148): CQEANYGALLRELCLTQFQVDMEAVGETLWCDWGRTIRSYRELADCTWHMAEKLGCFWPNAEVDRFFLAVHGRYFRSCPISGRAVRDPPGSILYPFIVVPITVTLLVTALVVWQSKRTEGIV

Structure (SMILES): Cc1cc(C[C@@H](NC(=O)N2CCC(c3cc4c([nH]c3=O)CCCS4)CC2)C(=O)N2CCN(C3CCN(C)CC3)CC2)cc2cn[nH]c12 [Example 12, (R)-N-(3-(7-methyl-1H-indazole-5-yl)-1-(4-(1-methylpiperidine-4-yl)piperazine-1-yl)-1-oxopropan-2-yl)-4-(6-oxo-3,4,5,6-tetrahydro-2H-thiopyrano[3,2-b]pyridine-7-yl)piperidine-1-formamide]
IC50 (CGRP receptor complex): 16.9 nM

Structure (SMILES): [2H]C1([2H])SCc2cc(C3CCN(C(=O)N[C@H](Cc4cc(C)c5[nH]ncc5c4)C(=O)N4CCN(C5CCN(C)CC5)CC4)CC3)c(=O)[nH]c21 [Example 14, (R)-N-(3-(7-methyl-1H-indazole-5-yl)-1-(4-(1-methylpiperidine-4-yl)piperazine-1-yl)-1-oxopropan-2-yl)-4-(2-oxo-1,2,5,7-tetrahydrothieno[3,4-b]pyridine-3-yl-7,7-d2)piperidine-1-formamide]
IC50 (CGRP receptor complex): 6.85 nM

Structure (SMILES): Cc1cc(C[C@@H](NC(=O)N2CCC(c3cc4c([nH]c3=O)CCSC4)CC2)C(=O)N2CCN(C3CCN(C)CC3)CC2)cc2cn[nH]c12 [Example 15, (R)-N-(3-(7-methyl-1H-indazole-5-yl)-1-(4-(1-methylpiperidine-4-yl)piperazine-1-yl)-1-oxopropan-2-yl)-4-(2-oxo-1,5,7,8-tetrahydro-2H-thiopyrano[4,3-b]pyridine-3-yl)piperidine-1-formamide]
IC50 (CGRP receptor complex): 10.1 nM

Structure (SMILES): Cc1cc(C[C@@H](NC(=O)C2CCN(c3cc4c([nH]c3=O)SCCC4)CC2)C(=O)N2CCN(C3CCN(C)CC3)CC2)cc2cn[nH]c12 [Example 21, (R)-N-(3-(7-methyl-1H-indazole-5-yl)-1-(4-(1-methylpiperidine-4-yl)piperazine-1-yl)-1-oxopropan-2-yl)-1-(7-oxo-3,4,7,8-tetrahydro-2H-thiopyrano[2,3-b]pyridine-6-yl)piperidine-4-formamide]
IC50 (CGRP receptor complex): 590 nM

Structure (SMILES): Cc1cc(C[C@@H](NC(=O)N2CCC(c3cc4c([nH]c3=O)SCCC4)CC2)C(=O)N2CCC(N3CCN(C)CC3)CC2)cc2cn[nH]c12 [Example 25, (R)-N-(3-(7-methyl-1H-indazole-5-yl)-1-(4-(4-methylpiperazine-1-yl)piperidine-1-yl)-1-oxopropan-2-yl)-4-(7-oxo-3,4,7,8-tetrahydro-2H-thiopyrano[2,3-b]pyridine-6-yl)piperidine-1-formamide]
IC50 (CGRP receptor complex): 0.79 nM

Structure (SMILES): [2H]C([2H])([2H])N1CCC(N2CCN(C(=O)[C@@H](Cc3cc(C)c4[nH]ncc4c3)NC(=O)N3CCC(c4cc5c([nH]c4=O)SCC5)CC3)CC2)CC1 [Example 29, (R)-N-(3-(7-methyl-1H-indazole-5-yl)-1-(4-(1-(methyl-d3)piperidine-4-yl)piperazine-1-yl)-1-oxopropan-2-yl)-4-(6-oxo-2,3,6,7-tetrahydrothieno[2,3-b]pyridine-5-yl)piperidine-1-formamide]
fb (%) (Plasma of human): 50.2%
microsomal CLint at 1 µM ([1]; Monkey liver microsomes): 1.6 µL/min/mg
half-life at 1 µM ([1]; Monkey liver microsomes 0.5 mg/mL, 1.0 µM): > 120 min
% remaining (60 min) ([1]; Monkey liver microsomes): 98.9%
fb (%) (Plasma of SD rat): 64.3%
half-life at 1 µM ([2]; Human liver microsomes 0.5 mg/mL, 1.0 µM): > 120 min
% remaining (60 min) [2]: 115%
fb (%) [3]: 56.1%
half-life at 1 µM ([4]; Rat liver microsomes 0.5 mg/mL, 1.0 µM): > 120 min
% remaining (60 min) [4]: 105%

Structure (SMILES): Cc1cc(C[C@@H](NC(=O)N2CCC(c3cc4c([nH]c3=O)SCC4)CC2)C(=O)N2C3CCC2CC(N2CCCCC2)C3)cc2cn[nH]c12 (stereo partly drawn) [Example 34, N-((2R)-3-(7-methyl-1H-indazole-5-yl)-1-oxo-1-(3-(piperidine-1-yl)-8-azabicyclo[3.2.1]octane-8-yl)propan-2-yl)-4-(6-oxo-2,3,6,7-tetrahydrothieno[2,3-b]pyridine-5-yl)piperidine-1-formamide]
IC50 (CGRP receptor complex): 0.2 nM

IC50 (CGRP receptor complex): 26 nM
Structure (SMILES): Cc1cc(C[C@@H](NC(=O)N2CCC(c3cc4c([nH]c3=O)C3CCC4C3)CC2)C(=O)N2CCN(C3CCN(C)CC3)CC2)cc2cn[nH]c12 (stereo partly drawn) [Example 45, N-((R)-3-(7-methyl-1H-indazole-5-yl)-1-(4-(1-methylpiperidine-4-yl)piperazine-1-yl)-1-oxopropan-2-yl)-4-(2-oxo-1,2,5,6,7,8-hexahydro-5,8-methanoquinoline-3-yl)piperidine-1-formamide]

Structure (SMILES): Cc1cc(C[C@@H](NC(=O)N2CCC(c3cc4c([nH]c3=O)SCC=C4)CC2)C(=O)N2CCN(C3CCN(C)CC3)CC2)cc2cn[nH]c12 [Example 48, (R)-N-(3-(7-methyl-1H-indazole-5-yl)-1-(4-(1-methylpiperidine-4-yl)piperazine-1-yl)-1-oxopropan-2-yl)-4-(7-oxo-7,8-dihydro-2H-thiopyrano[2,3-b]pyridine-6-yl)piperidine-1-formamide]
IC50 (CGRP receptor complex): 0.15 nM

% remaining (60 min) ([1]; Monkey liver microsomes): 72.1%
% remaining (60 min) [2]: 57.5%
% remaining (60 min) [4]: 95.5%
Tmax ([6]; 0.2% DDM): 12.5 min
Tmax ([6]; not added with DDM (0%DDM)): 15 min
Tmax(DDM 0.2%)/ Tmax(DDM 0%) ([6]; intranasal, 0.2% dodecyl-β-D-maltoside (DDM) vs without DDM): 83.6%
Tmax(DDM 5%)/ Tmax(DDM 0%) [7]: 50%
Structure (SMILES): Cc1cc(C[C@@H](NC(=O)N2CCC(c3cc4ccccc4[nH]c3=O)CC2)C(=O)N2CCN(C3CCN(C)CC3)CC2)cc2cn[nH]c12 [Zavegepant, zavegepant, reference compound]
AUC [5]: no obvious changes
Cmax [5]: no obvious changes
Tmax [5]: prolonged to some extent
